Laboratory results as given in the NIST ThermoML archive (doi:10.1021/je700236c).
Values joined by “and” are separate entries in the source; they are usually repeats but may differ in a detail not shown here. Equal entries are not always repeated. ± gives the expanded uncertainty stated by the source.

Details: Gas, Buoyancy - hydrostatic balance with magnetic suspension - two sinkers

FC(F)C(F)(F)F [pentafluoroethane]
Details | mass density
283.15 K, 207.2 kPa | 10.978 ± 0.012 kg/m3 and 10.98 ± 0.012 kg/m3
283.15 K, 442.7 kPa | 24.675 ± 0.022 kg/m3 and 24.667 ± 0.022 kg/m3
283.15 K, 617.4 kPa | 35.904 ± 0.032 kg/m3 and 35.92 ± 0.032 kg/m3
283.15 K, 710.7 kPa | 42.388 ± 0.04 kg/m3
283.15 K, 710.8 kPa | 42.398 ± 0.04 kg/m3
283.15 K, 758.3 kPa | 45.855 ± 0.044 kg/m3 and 45.853 ± 0.044 kg/m3
283.15 K, 811.7 kPa | 49.881 ± 0.047 kg/m3 and 49.877 ± 0.047 kg/m3
283.15 K, 828 kPa | 51.141 ± 0.049 kg/m3 and 51.137 ± 0.049 kg/m3
283.15 K, 857 kPa | 53.429 ± 0.052 kg/m3 and 53.417 ± 0.052 kg/m3
283.15 K, 872.2 kPa | 54.64 ± 0.054 kg/m3
283.15 K, 872.3 kPa | 54.652 ± 0.054 kg/m3
283.15 K, 880 kPa | 55.27 ± 0.055 kg/m3 and 55.283 ± 0.055 kg/m3
283.15 K, 889.1 kPa | 56.021 ± 0.056 kg/m3
283.15 K, 889.2 kPa | 56.023 ± 0.056 kg/m3
283.15 K, 901.7 kPa | 57.048 ± 0.056 kg/m3 and 57.055 ± 0.057 kg/m3
293.15 K, 205.9 kPa | 10.502 ± 0.012 kg/m3
293.15 K, 206 kPa | 10.492 ± 0.012 kg/m3
293.15 K, 413.1 kPa | 21.853 ± 0.019 kg/m3
293.15 K, 413.2 kPa | 21.867 ± 0.019 kg/m3
293.15 K, 605 kPa | 33.264 ± 0.03 kg/m3 and 33.278 ± 0.03 kg/m3
293.15 K, 799.7 kPa | 45.976 ± 0.043 kg/m3
293.15 K, 799.8 kPa | 45.993 ± 0.043 kg/m3
293.15 K, 901.5 kPa | 53.187 ± 0.05 kg/m3 and 53.196 ± 0.05 kg/m3
293.15 K, 1000.4 kPa | 60.669 ± 0.06 kg/m3
293.15 K, 1000.5 kPa | 60.666 ± 0.06 kg/m3
293.15 K, 1051.5 kPa | 64.739 ± 0.065 kg/m3 and 64.718 ± 0.065 kg/m3
293.15 K, 1101.2 kPa | 68.839 ± 0.072 kg/m3
293.15 K, 1101.3 kPa | 68.86 ± 0.072 kg/m3
293.15 K, 1133.2 kPa | 71.588 ± 0.075 kg/m3 and 71.578 ± 0.075 kg/m3
293.15 K, 1149.6 kPa | 73.019 ± 0.077 kg/m3
293.15 K, 1149.7 kPa | 73.016 ± 0.077 kg/m3
293.15 K, 1170.5 kPa | 74.869 ± 0.08 kg/m3
293.15 K, 1170.6 kPa | 74.882 ± 0.08 kg/m3
293.15 K, 1181.8 kPa | 75.887 ± 0.081 kg/m3
293.15 K, 1182 kPa | 75.908 ± 0.081 kg/m3
293.15 K, 1192.1 kPa | 76.823 ± 0.082 kg/m3
293.15 K, 1192.2 kPa | 76.841 ± 0.082 kg/m3
293.15 K, 1200.9 kPa | 77.624 ± 0.082 kg/m3
293.15 K, 1201 kPa | 77.644 ± 0.083 kg/m3
303.15 K, 225.1 kPa | 11.079 ± 0.012 kg/m3 and 11.067 ± 0.012 kg/m3
303.15 K, 411.9 kPa | 20.874 ± 0.018 kg/m3 and 20.883 ± 0.018 kg/m3
303.15 K, 602.3 kPa | 31.549 ± 0.028 kg/m3 and 31.562 ± 0.028 kg/m3
303.15 K, 800.1 kPa | 43.526 ± 0.04 kg/m3 and 43.535 ± 0.04 kg/m3
303.15 K, 999.2 kPa | 56.733 ± 0.055 kg/m3
303.15 K, 999.3 kPa | 56.74 ± 0.055 kg/m3
303.15 K, 1202.4 kPa | 71.762 ± 0.073 kg/m3 and 71.771 ± 0.073 kg/m3
303.15 K, 1299.2 kPa | 79.657 ± 0.085 kg/m3
303.15 K, 1299.4 kPa | 79.674 ± 0.085 kg/m3
303.15 K, 1406.6 kPa | 89.099 ± 0.097 kg/m3
303.15 K, 1406.7 kPa | 89.124 ± 0.097 kg/m3
303.15 K, 1450.2 kPa | 93.212 ± 0.1 kg/m3 and 93.199 ± 0.1 kg/m3
303.15 K, 1481.2 kPa | 96.221 ± 0.11 kg/m3
303.15 K, 1481.3 kPa | 96.231 ± 0.11 kg/m3
303.15 K, 1505.2 kPa | 98.609 ± 0.12 kg/m3 and 98.623 ± 0.12 kg/m3
303.15 K, 1520.5 kPa | 100.175 ± 0.12 kg/m3
303.15 K, 1520.6 kPa | 100.195 ± 0.12 kg/m3
303.15 K, 1537.3 kPa | 101.933 ± 0.12 kg/m3
303.15 K, 1537.4 kPa | 101.917 ± 0.12 kg/m3
303.15 K, 1565.1 kPa | 104.879 ± 0.13 kg/m3
303.15 K, 1565.8 kPa | 104.956 ± 0.13 kg/m3
313.15 K, 203.4 kPa | 9.623 ± 0.012 kg/m3 and 9.618 ± 0.012 kg/m3
313.15 K, 404.5 kPa | 19.688 ± 0.017 kg/m3
313.15 K, 404.6 kPa | 19.685 ± 0.017 kg/m3
313.15 K, 602.7 kPa | 30.217 ± 0.026 kg/m3 and 30.212 ± 0.026 kg/m3
313.15 K, 801.5 kPa | 41.504 ± 0.038 kg/m3 and 41.496 ± 0.038 kg/m3
313.15 K, 1002 kPa | 53.773 ± 0.051 kg/m3 and 53.76 ± 0.051 kg/m3
313.15 K, 1199.3 kPa | 66.926 ± 0.066 kg/m3 and 66.915 ± 0.066 kg/m3
313.15 K, 1398.2 kPa | 81.578 ± 0.086 kg/m3
313.15 K, 1398.3 kPa | 81.585 ± 0.086 kg/m3
313.15 K, 1604.4 kPa | 98.7 ± 0.11 kg/m3
313.15 K, 1604.5 kPa | 98.71 ± 0.11 kg/m3
313.15 K, 1705.9 kPa | 108.153 ± 0.13 kg/m3 and 108.152 ± 0.13 kg/m3
313.15 K, 1814.1 kPa | 119.179 ± 0.15 kg/m3 and 119.18 ± 0.15 kg/m3
313.15 K, 1900.7 kPa | 128.938 ± 0.17 kg/m3 and 128.932 ± 0.17 kg/m3
313.15 K, 1951.9 kPa | 135.196 ± 0.19 kg/m3 and 135.193 ± 0.19 kg/m3
313.15 K, 1976.7 kPa | 138.379 ± 0.19 kg/m3 and 138.387 ± 0.19 kg/m3
313.15 K, 1990.3 kPa | 140.201 ± 0.2 kg/m3 and 140.173 ± 0.2 kg/m3
313.15 K, 2001.8 kPa | 141.759 ± 0.21 kg/m3
313.15 K, 2002 kPa | 141.763 ± 0.2 kg/m3
323.15 K, 196.2 kPa | 8.951 ± 0.012 kg/m3 and 8.953 ± 0.012 kg/m3
323.15 K, 495.8 kPa | 23.505 ± 0.02 kg/m3 and 23.498 ± 0.02 kg/m3
323.15 K, 798.1 kPa | 39.455 ± 0.035 kg/m3 and 39.458 ± 0.035 kg/m3
323.15 K, 999.5 kPa | 50.95 ± 0.047 kg/m3
323.15 K, 999.6 kPa | 50.954 ± 0.047 kg/m3
323.15 K, 1199 kPa | 63.156 ± 0.061 kg/m3 and 63.162 ± 0.061 kg/m3
323.15 K, 1399 kPa | 76.417 ± 0.077 kg/m3 and 76.411 ± 0.077 kg/m3
323.15 K, 1599.7 kPa | 90.933 ± 0.097 kg/m3 and 90.927 ± 0.097 kg/m3
323.15 K, 1798.9 kPa | 106.993 ± 0.12 kg/m3
323.15 K, 1799 kPa | 106.996 ± 0.12 kg/m3
323.15 K, 2000.3 kPa | 125.421 ± 0.16 kg/m3 and 125.435 ± 0.16 kg/m3
323.15 K, 2100.4 kPa | 135.708 ± 0.18 kg/m3 and 135.695 ± 0.18 kg/m3
323.15 K, 2201.4 kPa | 147.071 ± 0.21 kg/m3
323.15 K, 2201.5 kPa | 147.082 ± 0.21 kg/m3
323.15 K, 2301.3 kPa | 159.592 ± 0.23 kg/m3 and 159.61 ± 0.23 kg/m3
323.15 K, 2350 kPa | 166.311 ± 0.27 kg/m3
323.15 K, 2350.1 kPa | 166.298 ± 0.27 kg/m3
323.15 K, 2400.2 kPa | 173.712 ± 0.29 kg/m3 and 173.74 ± 0.29 kg/m3
323.15 K, 2430 kPa | 178.427 ± 0.32 kg/m3
323.15 K, 2430.1 kPa | 178.468 ± 0.32 kg/m3
323.15 K, 2451.8 kPa | 182.037 ± 0.33 kg/m3 and 182.009 ± 0.33 kg/m3
323.15 K, 2469.3 kPa | 185.047 ± 0.35 kg/m3 and 185.021 ± 0.34 kg/m3
